Source: patent US20080131498A1, “PHARMACEUTICAL COMPOSITION, A METHOD OF PREPARING IT AND A METHOD OF TREATMENT BY USE THEREOF” (BUSULIPO AB, priority 1998, published 2008)
Several values for one entry are separate records, joined by “and”; a condition that tells them apart may be missing. Equal entries are not always repeated. Entries after “also recorded” stand apart in the source; their conditions may differ. Where two headings read alike, the source gives them in different places.

Assays:
[1] = tested on: GSH intracellular content of CD34+ cells; experiment: GSH assay in CD34+ cells after NAC or BSO; assay type: cell-based, human; conditions: preincubation 16 to 18 hours, NAC 1 mM or BSO 50 μM
Experimental: Ten healthy volunteers were recruited after a medical interview. The study followed the guidelines of the local authorities and was approved by the local ethical committee. […] CD34+ cells were separated on a MACS system by positive selection using CD34+ Separation Kit according to the manufacturer's instructions. Cells were incubated in RPMI-1640 medium supplemented with 10% heat inactivated fetal bovine serum at 37° C. in a humidified 5% CO2 atmosphere. Cells used for pharmacodynamic study were incubated in busulphan of final concentrations of 1, 2.5, 5, 10, 20, 40 or 60 μg/ml for 2, 4 or 8 hours. Cells used for the GSH modulation part were treated with N-acetyl-L-cysteine (NAC) (1 mM) or L-buthionine-[S,R]-sulfoximine (BSO) (50 μM) for 16 to 18 hours, followed by busulphan in final concentrations of 4.5 or 10 μg/ml for 4 hours. […]
(§1) Intracellular concentrations of GSH were determined using the enzymatic assay according to Tietze (Tietze, F. Enzymic method for quantitative determination of nanogram amounts of total and oxidized glutathione: applications to mammalian blood and other tissues. Anal Biochem, 27: 502-522., 1969). Total cellular protein was assessed according to Lowry after dissolving the precipitate in 1M NaOH (Lowry, O. H., Rosebrough, N. J., Farr, A. L., and Randall, R. J. Protein measurement with the folin phenol reagent. J Biol Chem, 193: 265-275., 1951)

CFU-GM = experiment: Busulphan-induced myelosuppression in mice with GSH modulators, CFU-GM assay; assay type: in vivo, Balb/c mice; conditions: for effect of combination on the myelosuppressive effect of busulphan: NAC 1.38 mmol/kg orally or BSO 0.93 mmol/kg ip before busulphan
Experimental: Balb/c mice were purchased from B&K Universal Limited, Sweden. Female mice were 6 to 12 weeks old with a weight ranging from 20 to 24 g. Local animal ethical committee approved animals housing conditions and experimental design. Animals were fed with standard pelleted food and water ad libitum. […] Treatment consisted of N-acetyl-L-cysteine (1.38±0.07 mmol/kg) orally or L-buthionine-[S,R]-sulfoximine (0.93±0.03 mmol/kg) intraperitoneally followed by liposomal busulphan (37±1.4 mg/kg) intraperitoneally. Animals were sacrificed at day 1, 3, 6, 9 or 12 after the last dose of treatment.
Liposomal busulphan was used in the in vivo study and prepared as described in example 1. Liposomal busulphan was prepared freshly before each experiment and stored in refrigerator until use.
(§2) CD34+ cells were treated with NAC, BSO, DMSO or busulphan alone or in combinations, washed and 2000 cells were plated in 1.1 ml of MethoCult™ GF H4434 in 35 mm Petri dishes in triplicates. Colonies were scored on day 14 using an inverted microscope. Murine bone marrow was harvested on day 1, 3, 6, 9 or 12 after the last dose of the treatment. Control group and each treatment group consisted of a minimum of three animals at each time point. Mice were sacrificed under general anaesthesia. Both femurs were removed and bone marrow was flushed out under sterile conditions. Cells were counted in Türk solution and nucleated cells (0.5×10^5) were plated in 1.1 ml of MethoCult™ GF M3534 in 35 mm Petri dishes in triplicates. The plates were placed in incubator (37° C., 5% CO2 and 100% humidity). CFU-GM, equal to or more than 50 cells, were counted on the day 7 using an inverted microscope.

[2] = tested on: CFU-GM from normal CD34+ hematopoietic progenitor cells; experiment: Clonogenic assay of CD34+ cells, CFU-GM (Example 11); assay type: cell-based, human; conditions: for effect alone on colony formation of CFU-GM or erythroid colonies / effect on busulphan-induced inhibition of colony formation of CFU-GM or erythroid colonies: CD34+ cells; for effect on busulphan-induced inhibition of colony formation of CFU-GM or erythroid colonies: preincubation then busulphan 4.5 or 10 μg/ml for 4 hours
Experimental: (§3) Ten healthy volunteers were recruited after a medical interview. The study followed the guidelines of the local authorities and was approved by the local ethical committee. […] CD34+ cells were separated on a MACS system by positive selection using CD34+ Separation Kit according to the manufacturer's instructions. Cells were incubated in RPMI-1640 medium supplemented with 10% heat inactivated fetal bovine serum at 37° C. in a humidified 5% CO2 atmosphere. Cells used for pharmacodynamic study were incubated in busulphan of final concentrations of 1, 2.5, 5, 10, 20, 40 or 60 μg/ml for 2, 4 or 8 hours. Cells used for the GSH modulation part were treated with N-acetyl-L-cysteine (NAC) (1 mM) or L-buthionine-[S,R]-sulfoximine (BSO) (50 μM) for 16 to 18 hours, followed by busulphan in final concentrations of 4.5 or 10 μg/ml for 4 hours. After incubation, cells were washed and plated for clonogenic assay.
as §2

[3] = tested on: GSH intracellular level of P39 cells; experiment: GSH assay in P39 cells after NAC or BSO; assay type: cell-based, human
Experimental: (§4) The P39 cell line was kindly provided by Prof Y. Yoshida, Center for South East Asian Studies, Kyoto University, Kyoto, Japan. Cells were cultured in RPMI-1640 medium supplemented with 10% heat inactivated fetal bovine serum (FBS), penicillin (25 IU/ml) and streptomycin (25 μg/ml) at 37° C. in a humidified 5% CO2 atmosphere. Exponentially growing cells were used in all experiments. Cells were incubated with N-acetyl-L-cysteine (1 mM) or L-buthionine-[S,R]-sulfoximine (50 μM) for 16 to 18 hours and then with busulphan in final concentrations of 10, 20 or 40 μg/ml for 4 hours. After incubation, cells were washed and re-cultured in busulphan-free medium for 72 hours.
as §1

myeloid P39 cell line = experiment: Proliferation, clonogenicity and apoptosis in P39 cells; assay type: cell-based, human; conditions: for effect on proliferation of busulphan treated P39 cells ([^3H]thymidine incorporation) / effect on the effect of busulphan on clonogenic capacity of P39 cells / effect on levels of apoptosis induced by busulphan in P39 cells: pretreatment; for effect on the effect of busulphan on clonogenic capacity of P39 cells: busulphan 10, 20 or 40 μg/ml 4 hours; for effect on levels of apoptosis induced by busulphan in P39 cells: data not shown
Experimental: as §4
Proliferation was assessed using the [^3H]thymidine incorporation assay. Clonogenic capacity was determined in 0.9% methylcellulose and apoptosis with morphology in May-Grünwald-Giemsa staining as described in (Hassan, Z., Hassan, M., and Hellstrom-Lindberg, E. The pharmacodynamic effect of busulfan in the P39 myeloid cell line in vitro. Leukemia, 15: 1240-1247, 2001).

[4] = Busulphan AUC before and after NAC in patients (Example 12); assay type: in vivo, human patients; conditions: for AUC: plasma
Experimental: Busulphan was given twice daily.
Busulphan was determined using gas chromatography with electron capture detector. Internal standard (1,5-bis(methanesulphonyloxy) pentane) was added to 0.5 ml plasma. Busulphan and internal standard were converted to 1,4-diiodobutane and 1,5-diiodopentane, respectively.

[5] = NAC therapy during conditioning prior to allogeneic SCT: liver function, VOD, course of transplantation (Example 12)
From the text: Ten patients, who underwent allogeneic stem cell transplantation (SCT) were included in the study. Six patients were transplanted with stem cells from matched unrelated donors, three with stem cells from HLA (Human Leukocyte Antigen) identical sibling donors and one with cord blood. The patients were included on the basis of high risk for hepatic toxicity. […] All patients had been tested negative for viral hepatitis B and C during pre-transplantation evaluation.
The initial busulphan dose given to these patients was 4 mg/kg/day. Busulphan was given twice daily. In cases of high busulphan serum concentrations the dose was reduced during conditioning as described below. […] Nine patients were given NAC during conditioning with busulphan. Treatment with NAC was given once daily as a three-hour infusion, 100 mg per kg body weight starting six hours after the previous busulphan dose and ending three hours before the following dose. The number of NAC doses given during and after busulphan treatment among the patients is described in Table 9. […] When restarted, NAC was administered not earlier than twelve hours after the end of cyclophosphamide infusion. The treatment was continued until elevated liver transaminases were normalized or, if normal transaminases at initiation of therapy, until conditioning was completed.
Tissue typing, conditioning, GVHD prophylaxis and infectious prophylaxis were performed as generally known to the skilled person. In short, the patients were treated in reversed isolation, immunosuppression consisted of four doses of methotrexate combined with cyclosporine and antithymocyte globuline, (Thymoglobulin, Sangstadt, Lyon, France), was given to recipients of unrelated stem cells.

[6] = 25° C.; cited from earlier work
[7] = Half-life of busulphan in RPMI-1640 medium (in vitro pharmacokinetics); assay type: physicochemical; conditions: 37° C.
[8] = tested on: Erythroid colonies from normal CD34+ hematopoietic progenitor cells; experiment: Clonogenic assay of CD34+ cells, erythroid colonies (Example 11); assay type: cell-based, human; conditions: bone marrow donors BM 1-5 and Mean
Experimental: as §3
CD34+ cells were treated with NAC, BSO, DMSO or busulphan alone or in combinations, washed and 2000 cells were plated in 1.1 ml of MethoCult™ GF H4434 in 35 mm Petri dishes in triplicates. Colonies were scored on day 14 using an inverted microscope. […] Cells were counted in Türk solution and nucleated cells (0.5×10^5) were plated in 1.1 ml of MethoCult™ GF M3534 in 35 mm Petri dishes in triplicates. […] CFU-GM, equal to or more than 50 cells, were counted on the day 7 using an inverted microscope.

[9] = tested on: GSH in murine hepatocytes; conditions: cited from earlier work
[10] = After NAC therapy, one line per patient
[11] = After conditioning, one line per patient

CCCCS(=N)(=O)CC[C@H](N)C(=O)O (stereo partly drawn) [BSO, L-buthionine-[S,R]-sulfoximine]
GSH intracellular content compared to CD34+ cells incubated in medium [1]: 50±9% and 50%
effect alone on CFU-GM formation compared to the control group (CFU-GM): Neither NAC nor BSO influenced
effect of combination on the myelosuppressive effect of busulphan (CFU-GM): did not change the level of myelosuppression
effect alone on colony formation of CFU-GM or erythroid colonies [2]: did not influence
effect on busulphan-induced inhibition of colony formation of CFU-GM or erythroid colonies [2]: Neither did preincubation of CD34+ cells with BSO change; also recorded: no additive effect
decrease of GSH compared to cells cultured in medium ([3]; BSO 50 μM 16 to 18 hours): 80%
decrease of clonogenic capacity of P39 cells (myeloid P39 cell line; alone, immediately at the end of incubation, full recovery after 24 hours): 50%
combined effect with busulphan on P39 cells (myeloid P39 cell line; busulphan 10 μg/ml, immediately after the end of incubation): Additive effect
effect on proliferation of busulphan treated P39 cells ([^3H]thymidine incorporation) (myeloid P39 cell line): did not influence the proliferation
effect on the effect of busulphan on clonogenic capacity of P39 cells (myeloid P39 cell line): neither NAC nor BSO influenced
effect on levels of apoptosis induced by busulphan in P39 cells (myeloid P39 cell line): did not change the levels of apoptosis

CC(=O)N[C@@H](CS)C(=O)O [NAC, N-acetyl-L-cysteine]
GSH intracellular content compared to CD34+ cells incubated in medium [1]: 150±30%
effect alone on CFU-GM formation compared to the control group (CFU-GM): Neither NAC nor BSO influenced
effect of combination on the myelosuppressive effect of busulphan (CFU-GM): did not significantly influence
effect alone on colony formation of CFU-GM or erythroid colonies [2]: did not influence
effect on busulphan-induced inhibition of colony formation of CFU-GM or erythroid colonies [2]: did not affect
effect on busulphan serum concentrations ([4]; human, in vivo): not affected
increase of GSH intracellular level compared to cells cultured in medium ([3]; NAC 1 mM 16 to 18 hours): 10%
ALT [5, 10]: 0.77 ukat/L and 1.19 ukat/L and 0.61 ukat/L and 0.52 ukat/L
AST [5, 10]: 0.29 ukat/L and 0.33 ukat/L and 0.42 ukat/L and 0.49 ukat/L
Bilirubin [5, 10]: 9 µmol/L and 19 µmol/L and 7 µmol/L and 6 µmol/L
ALT [5, 11]: 4.11 ukat/L and 3.45 ukat/L and 0.78 ukat/L and 2.24 ukat/L
AST [5, 11]: 1.76 ukat/L and 1.50 ukat/L and 0.40 ukat/L and 0.82 ukat/L
Bilirubin [5, 11]: 4 µmol/L and 12 µmol/L and 11 µmol/L and 6 µmol/L
ALT ([5]; Before NAC therapy, one line per patient, normal range <0.8): 1.51 ukat/L and 2.25 ukat/L and 0.59 ukat/L and 8.10 ukat/L
AST ([5]; Before NAC therapy, one line per patient, normal range <0.80): 0.85 ukat/L and 0.96 ukat/L and 0.38 ukat/L and 11.2 ukat/L
Bilirubin ([5]; Before NAC therapy, one line per patient, normal range <26): 4 µmol/L and 5 µmol/L and 8 µmol/L and 3 µmol/L
Engraftment WBC day, ≧0.5 × 10^9/L ([5]; Day of SCT = day 0, one line per patient): 13 day (2×) and 12 day (3×) and 15 day and 24 day and 10 day and 14 day and 16 day
First day of WBC ≦0.5 × 10^9/L ([5]; Day of SCT = day 0, one line per patient, NAC during conditioning): 1 day and −1 day (2×) and −3 day and 0 day and 4 day and 5 day and 6 day and 2 day and −2 day
liver transferases after treatment in patients elevated at initiation ([5]; in vivo): less elevated test results after treatment
side effects related to the NAC infusions ([5]; in vivo): no side effects related to the NAC infusions were observed
Chimerism at 1 month post SCT ([5]; one line per patient): 100% donor
Patient outcome ([5]; one line per patient): Died day
Recurrence of the malignancy ([5]; one line per patient): No (9×) and 15 mo after
neutropenia ([5]; ten patients): Neutropenia developed in all patients
VOD or fatal liver toxicity ([5]; ten patients at high risk of VOD): None of the patients developed VOD or fatal liver toxicity
donor origin of hematopoietic cells (CD3+, Cd19+, CD45+) in peripheral blood ([5]; three months after SCT, five patients): 100%
effect on proliferation of busulphan treated P39 cells ([^3H]thymidine incorporation) (myeloid P39 cell line): did not influence the proliferation
effect on the effect of busulphan on clonogenic capacity of P39 cells (myeloid P39 cell line): neither NAC nor BSO influenced
effect on levels of apoptosis induced by busulphan in P39 cells (myeloid P39 cell line): did not change the levels of apoptosis

CS(=O)(=O)OCCCCOS(C)(=O)=O [busulphan, 1,4-bis-(methanesulphonyloxy)butan]
water solubility [6]: less than 1 microgram/ml
myelosuppression (CFU-GM colony-formation assay) (CFU-GM; liposomal busulphan 37±1.4 mg/kg ip once a day for 4 days): stable myelosuppression on days 3 through 12
I-AUC100 (AUC inhibiting colony formation by 100%) ([2]; CFU-GM, bone marrow donors BM 1-5 and Mean): 69.33 µg·h/mL and 56.01 µg·h/mL and 74.14 µg·h/mL and 69.46 µg·h/mL and 74.38 µg·h/mL
Busulphan AUC corrected for 2 mg/kg ([4]; After NAC, one line per patient): 10385 ng·h/mL and 12350 ng·h/mL and 15230 ng·h/mL and 10043 ng·h/mL and 19445 ng·h/mL and 12828 ng·h/mL
AUC ([4]; human, 2 mg/kg, Busulphan AUC corrected for 2 mg/kg, After NAC, one line per patient): 14800 ng·h/mL
AUC ([4]; human, oral, 4 mg/kg/day, patients no 2, 4 and 8, in this order, before NAC, read-out: AUC after the first dose of busulphan): 20500 ng·h/mL
AUC ([4]; human, oral, patients no 2, 4 and 8, in this order, doses reduced by 35, 15 and 30%, read-out: mean values of the AUC's during doses 4-8): 11400 ng·h/mL
AUC after the first dose of busulphan ([4]; patients no 2, 4 and 8, in this order, before NAC): 15527 ng·h/mL and 16122 ng·h/mL
mean values of the AUC's during doses 4-8 ([4]; patients no 2, 4 and 8, in this order, doses reduced by 35, 15 and 30%): 10551 ng·h/mL and 12122 ng·h/mL
half-life [7]: 960 min
k (C=C0.e^−kt) [7]: 0.043
I-AUC50 (AUC inhibiting colony formation by 50%) [8]: 31.54 µg·h/mL and 18.13 µg·h/mL and 24.68 µg·h/mL and 30.12 µg·h/mL and 26.96 µg·h/mL
I-AUC50 (AUC inhibiting colony formation by 50%) ([8]; mean): 26.29 µg·h/mL
GSH depletion in murine hepatocytes ([9]; in vitro): 50%
GSH depletion in murine hepatocytes ([9]; in vivo): 60%
